Experimental data: US20240000831A1, “MOLECULAR BASIS OF FATTY LIVER INHIBITION BY SODIUM BORATES” (YEDITEPE UNIVERSITESI, priority 2020, published 2024)
Where two headings read alike, the source gives them in different places.

Columns and labels:
[1] = cited from earlier work
[2] = tested on: non-alcoholic fatty liver pathway genes in healthy human cells; experiment: Microarray experiment: gene expression related to fatty liver; assay type: cell-based; conditions: healthy human cells treated for 3 days; ADIPOR2, PRKAG2, IRS1, PIK3R1, NFKB1, MAP3K11, BID, CYCS, BAX, CASP3, TGFB1
Procedure: All changes in the level of gene expression related to fatty liver in healthy human cells were determined by this method upon being treated with sodium borates for 3 days. It was determined how these genes affect the pathway related to fatty liver. As a result of the microarray experiment, it is understood that the expression level of many genes in the non-alcoholic fatty liver pathway decreased by 2 times and more, and fatty liver was prevented as the pathway lost its function substantially. Genes, whose expression was reduced, were ADIPOR2, PRKAG2, IRS1, PIK3R1, NFKB1, MAP3K11, BID, CYCS, BAX, CASP3 and TGFB1 (FIG. 1). In our in vivo study, it has been proven on animals that fatty liver was inhibited as a result of the failure of this pathway.

[3] = tested on: fatty liver caused by high-fat diet in balb/c mice; experiment: In vivo experiment: liver weight of high-fat diet mice; conditions: YYD supplemented with 1.5 mg/g SB, 10 weeks, female balb/c mice
Procedure: (§1) 8-weeks-old female 24 balb/c mice were used for the in vivo experiment. The adaptation process was completed in cages in a temperature-controlled room with a 12-hour light/dark cycle. Then, the mice were divided into four different dietary groups (n=6 for each group): normal diet (2.70 kcal/g), high-fat diet (YYD) (4.00 kcal/g), YYD supplemented with 0.5 mg/g SB, and YYD supplemented with 1.5 mg/g SB. At the end of 10 weeks, mice were sacrificed and weights of their livers were measured. At the end of 10 weeks, the livers of the mice were removed and weighed, and it was observed that fatty liver caused by high-fat diet was inhibited by the use of 1.5 mg/g SB as a supplement (FIG. 2A).

[4] = Toxicology studies in rats adapted to humans; assay type: in vivo; conditions: daily dose of 500 mg, rat toxicology studies adapted to humans
Procedure: Today, there is no specific drug for direct treatment of fatty liver. […] It is known that boron homeostasis taken into mammalian systems is excreted via urine within 72 hours. Boron also regulates calcium, potassium and magnesium metabolisms in the body.

[5] = tested on: pathological disorders in the liver caused by high-fat diet in balb/c mice; experiment: Histological evaluation of liver tissue (hematoxylin-eosin staining scores); assay type: in vivo; conditions: for hematoxylin-eosin staining technique score (Mean ± SD): 10 weeks, n = 6, YYD alone 12.6 ± 1.54, control 1.60 ± 1.14
Procedure: as §1
Liver tissues of mice were prepared for histological evaluation. These tissue samples were immersed in 10% neutral formaldehyde prepared with 0.1 M phosphate buffer (pH 7.4) for fixation at 4° C. Subsequently, the samples were rinsed in tap water for 12 hours, then dehydrated in an alcohol batch and embedded in paraffin. From samples embedded in paraffin, 5 micron thick samples were obtained using a rotary microtome (Leica RM 2245 model; Leica Instruments, Germany). All tissue sections were taken onto poly-L-lysine coated slides. All these samples were stained with hematoxylin eosin staining technique and imaged under a light microscope (Leica DM6000B). […] This method has been used to evaluate the situation of pathological deteriorations caused by high fat diet when different sodium boron administrations are applied and when not applied.

| Compound | time to excretion via urine ([1]; mammalian systems) | side effects ([1]; up to 18 mg of boron daily in adults) | decrease in expression levels of genes in the non-alcoholic fatty liver pathway [2] | fatty liver caused by high-fat diet (liver weight) [3] | side effects [4] | hematoxylin-eosin staining technique score (Mean ± SD) ([5]; YYD + 0.5 mg SB/g VA) | hematoxylin-eosin staining technique score (Mean ± SD) ([5]; YYD + 1.5 mg SB/g VA) | hematoxylin-eosin staining technique score (Mean ± SD) ([5]; YYD + 1.5 mg SB/g VA, listed as sodium borate) | pathological disorders caused by high-fat diet (histological evaluation) ([5]; both doses (0.5 and 1.5 mg/g), liver tissue) |
| --- | --- | --- | --- | --- | --- | --- | --- | --- | --- |
| [B] [boron] | ≤ 72 h | does not cause any side effects |  |  |  |  |  |  |  |
| sodium borate [SB] |  |  | ≥ 2 times | inhibited | no side effects | 8.6±1.14 | 3.6 ± 0.89 | 3.6±0.89 | decreased the pathological disorders |
